# Values quoted from earlier work, collected in article PMC7584369, “Di-bromo-Based Small-Molecule Inhibitors of the PD-1/PD-L1 Immune Checkpoint” (Journal of Medicinal Chemistry, 2020).
# Tested on: PD-L1
# Settings: several independent biophysical and cell-based assays; cited from earlier work
structure (smiles),measurement,value
C[C@@H](O)[C@H](NC(=O)N[C@@H](CC(N)=O)c1nc([C@@H](N)CO)no1)C(=O)O [CA-170],direct binding to PD-L1,not a direct PD-L1-binder
